Holding throughout (type): ADME
A short description of data set [1]: The drug is tested on Streptococcus mitis strain: DSM12643 for biotransformation under anaerobic condition. The drug concentrations were measured over 6 timepoints collected between 0 and 12 hours of incubation by liquid-chromatography-coupled mass spectrometry (LC–MS). Also on record: dose 5 uM, timepoint 0, 1.5, 3, 6, 9, 12 hours. As to conditions: 5 µM.
A short description of data set [2]: The drug is tested on the gut metagenome community of T-05 with ENA study accession number: PRJEB31790 for biotransformation under microaerobic condition. The drug concentrations were measured over 7 timepoints collected between 0 and 12 hours of incubation by liquid-chromatography-coupled mass spectrometry (LC–MS). Also on record: dose 5 uM, timepoint 0, 0.75, 1.5, 3, 6, 9, 12 hours. Conditions: 5 µM.

Data set [3] is described as follows: The drug is tested on Bacteroides uniformis strain: DSM6597 for biotransformation under anaerobic condition. The drug concentrations were measured over 6 timepoints collected between 0 and 12 hours of incubation by liquid-chromatography-coupled mass spectrometry (LC–MS). Also on record: dose 5 uM, timepoint 0, 1.5, 3, 6, 9, 12 hours. Conditions: 5 µM.
The nature of data set [4]: The drug is tested on the gut metagenome community of A-03 with ENA study accession number: PRJEB31790 for biotransformation under microaerobic condition. The drug concentrations were measured over 7 timepoints collected between 0 and 12 hours of incubation by liquid-chromatography-coupled mass spectrometry (LC–MS). More on the design: dose 5 uM, timepoint 0, 0.75, 1.5, 3, 6, 9, 12 hours. As to conditions: 5 µM.

The nature of data set [5]: The drug is tested on Bacteroides vulgatus strain: DSM1447 for biotransformation under anaerobic condition. The drug concentrations were measured over 6 timepoints collected between 0 and 12 hours of incubation by liquid-chromatography-coupled mass spectrometry (LC–MS). More on the design: dose 5 uM, timepoint 0, 1.5, 3, 6, 9, 12 hours. As to conditions: phocaeicola vulgatus, 5 µM.

Data set [6] can be described thus: The drug is tested on Faecalibacterium prausnitzii strain: DSM17677 for biotransformation under anaerobic condition. The drug concentrations were measured over 6 timepoints collected between 0 and 12 hours of incubation by liquid-chromatography-coupled mass spectrometry (LC–MS). Also on record: dose 5 uM, timepoint 0, 1.5, 3, 6, 9, 12 hours. Conditions: faecalibacterium duncaniae, 5 µM.

Data set [7] is described as follows: The drug is tested on Bacteroides ovatus strain: ATCC 8483 for biotransformation under anaerobic condition. The drug concentrations were measured over 6 timepoints collected between 0 and 12 hours of incubation by liquid-chromatography-coupled mass spectrometry (LC–MS). More on the design: dose 5 uM, timepoint 0, 1.5, 3, 6, 9, 12 hours. As to conditions: 5 µM.

Data set [8] is described as follows: The drug is tested on the gut metagenome community of A-10 with ENA study accession number: PRJEB31790 for biotransformation under anaerobic condition. The drug concentrations were measured over 7 timepoints collected between 0 and 12 hours of incubation by liquid-chromatography-coupled mass spectrometry (LC–MS). Also on record: dose 5 uM, timepoint 0, 0.75, 1.5, 3, 6, 9, 12 hours. As to conditions: 5 µM.

The nature of data set [9]: The drug is tested on the gut metagenome community of P-01 with ENA study accession number: PRJEB31790 for biotransformation under microaerobic condition. The drug concentrations were measured over 7 timepoints collected between 0 and 12 hours of incubation by liquid-chromatography-coupled mass spectrometry (LC–MS). As to conditions: 5 µM. Also on record: dose 5 uM, timepoint 0, 0.75, 1.5, 3, 6, 9, 12 hours.

Data set [10] can be described thus: The drug is tested on the gut metagenome community of A-04 with ENA study accession number: PRJEB31790 for biotransformation under microaerobic condition. The drug concentrations were measured over 7 timepoints collected between 0 and 12 hours of incubation by liquid-chromatography-coupled mass spectrometry (LC–MS). More on the design: dose 5 uM, timepoint 0, 0.75, 1.5, 3, 6, 9, 12 hours. As to conditions: 5 µM.

Data set [11] in a line: The drug is tested on the gut metagenome community of A-01 with ENA study accession number: PRJEB31790 for biotransformation under anaerobic condition. The drug concentrations were measured over 7 timepoints collected between 0 and 12 hours of incubation by liquid-chromatography-coupled mass spectrometry (LC–MS). More on the design: dose 5 uM, timepoint 0, 0.75, 1.5, 3, 6, 9, 12 hours. Conditions: 5 µM.

Data set [12] can be described thus: The drug is tested on Eubacterium hallii strain: DSM3353 for biotransformation under anaerobic condition. The drug concentrations were measured over 6 timepoints collected between 0 and 12 hours of incubation by liquid-chromatography-coupled mass spectrometry (LC–MS). More on the design: dose 5 uM, timepoint 0, 1.5, 3, 6, 9, 12 hours. As to conditions: anaerobutyricum hallii, 5 µM.

A short description of data set [13]: The drug is tested on Actinomyces naeslundi strain: DSM43013 for biotransformation under anaerobic condition. The drug concentrations were measured over 6 timepoints collected between 0 and 12 hours of incubation by liquid-chromatography-coupled mass spectrometry (LC–MS). As to conditions: actinomyces naeslundii, 5 µM. Also on record: dose 5 uM, timepoint 0, 1.5, 3, 6, 9, 12 hours.

Data set [14] can be described thus: The drug is tested on the gut metagenome community of T-01 with ENA study accession number: PRJEB31790 for biotransformation under anaerobic condition. The drug concentrations were measured over 7 timepoints collected between 0 and 12 hours of incubation by liquid-chromatography-coupled mass spectrometry (LC–MS). More on the design: dose 5 uM, timepoint 0, 0.75, 1.5, 3, 6, 9, 12 hours. As to conditions: 5 µM.

The nature of data set [15]: The drug is tested on Lactobacillus ruminis strain: ATCC25644 for biotransformation under microaerobic condition. The drug concentrations were measured over 6 timepoints collected between 0 and 12 hours of incubation by liquid-chromatography-coupled mass spectrometry (LC–MS). Also on record: dose 5 uM, timepoint 0, 1.5, 3, 6, 9, 12 hours. As to conditions: ligilactobacillus ruminis, 5 µM.

Data set [16] in a line: The drug is tested on Akkermansia muciniphila strain: DSM22959 for biotransformation under anaerobic condition. The drug concentrations were measured over 6 timepoints collected between 0 and 12 hours of incubation by liquid-chromatography-coupled mass spectrometry (LC–MS). More on the design: dose 5 uM, timepoint 0, 1.5, 3, 6, 9, 12 hours. As to conditions: 5 µM.
Data set [17] is described as follows: The drug is tested on Bacteroides xylanisolvens strain: HM 722 for biotransformation under anaerobic condition. The drug concentrations were measured over 6 timepoints collected between 0 and 12 hours of incubation by liquid-chromatography-coupled mass spectrometry (LC–MS). Also on record: dose 5 uM, timepoint 0, 1.5, 3, 6, 9, 12 hours. As to conditions: 5 µM.

Data set [18] in a line: The drug is tested on Alloscardovia omnicolens strain: DSM21503 for biotransformation under anaerobic condition. The drug concentrations were measured over 6 timepoints collected between 0 and 12 hours of incubation by liquid-chromatography-coupled mass spectrometry (LC–MS). More on the design: dose 5 uM, timepoint 0, 1.5, 3, 6, 9, 12 hours. Conditions: 5 µM.
The nature of data set [19]: The drug is tested on the gut metagenome community of A-03 with ENA study accession number: PRJEB31790 for biotransformation under anaerobic condition. The drug concentrations were measured over 7 timepoints collected between 0 and 12 hours of incubation by liquid-chromatography-coupled mass spectrometry (LC–MS). Also on record: dose 5 uM, timepoint 0, 0.75, 1.5, 3, 6, 9, 12 hours. As to conditions: 5 µM.

Data set [20] is described as follows: The drug is tested on the gut metagenome community of T-04 with ENA study accession number: PRJEB31790 for biotransformation under microaerobic condition. The drug concentrations were measured over 7 timepoints collected between 0 and 12 hours of incubation by liquid-chromatography-coupled mass spectrometry (LC–MS). Conditions: 5 µM. Also on record: dose 5 uM, timepoint 0, 0.75, 1.5, 3, 6, 9, 12 hours.

The nature of data set [21]: The drug is tested on the gut metagenome community of A-08 with ENA study accession number: PRJEB31790 for biotransformation under microaerobic condition. The drug concentrations were measured over 7 timepoints collected between 0 and 12 hours of incubation by liquid-chromatography-coupled mass spectrometry (LC–MS). As to conditions: 5 µM. More on the design: dose 5 uM, timepoint 0, 0.75, 1.5, 3, 6, 9, 12 hours.

Data set [22] in a line: The drug is tested on the gut metagenome community of A-09 with ENA study accession number: PRJEB31790 for biotransformation under anaerobic condition. The drug concentrations were measured over 7 timepoints collected between 0 and 12 hours of incubation by liquid-chromatography-coupled mass spectrometry (LC–MS). Also on record: dose 5 uM, timepoint 0, 0.75, 1.5, 3, 6, 9, 12 hours. As to conditions: 5 µM.

A short description of data set [23]: The drug is tested on Roseburia intestinalis strain: DSM14610 for biotransformation under anaerobic condition. The drug concentrations were measured over 6 timepoints collected between 0 and 12 hours of incubation by liquid-chromatography-coupled mass spectrometry (LC–MS). Also on record: dose 5 uM, timepoint 0, 1.5, 3, 6, 9, 12 hours. As to conditions: 5 µM.

A short description of data set [24]: The drug is tested on Lactobacillus ruminis strain: ATCC25644 for biotransformation under anaerobic condition. The drug concentrations were measured over 6 timepoints collected between 0 and 12 hours of incubation by liquid-chromatography-coupled mass spectrometry (LC–MS). More on the design: dose 5 uM, timepoint 0, 1.5, 3, 6, 9, 12 hours. Conditions: ligilactobacillus ruminis, 5 µM.

As for `CCC(C)(C)C(=O)O[C@H]1C[C@@H](C)C=C2C=C[C@H](C)[C@H](CC[C@@H]3C[C@@H](O)CC(=O)O3)[C@H]21` [SIMVASTATIN], the “Bacterial Biotransformation” value in data set [1], in data set [2], in [3], in data set [4], in data set [5] and in data set [6] was “Compound NOT metabolized” in each case. Also, the “Bacterial Biotransformation” value in data set [7], in [8], in [9], in data set [10], in data set [11] and in data set [12] was “Compound NOT metabolized” each time. Moreover, the “Bacterial Biotransformation” value in data set [13], in data set [14], in data set [15], in data set [16], in [17] and in [18] was “Compound NOT metabolized” each time. The “Bacterial Biotransformation” value in data set [19], in data set [20], in data set [21], in [22], in data set [23] and in data set [24] was “Compound NOT metabolized” in each case.

Turning to `CO[C@H]1C[C@@H]2CC[C@@H](C)[C@@](O)(O2)C(=O)C(=O)N2CCCC[C@H]2C(=O)O[C@H]([C@H](C)C[C@@H]2CC[C@@H](O)[C@H](OC)C2)CC(=O)[C@H](C)/C=C(\C)[C@@H](O)[C@@H](OC)C(=O)[C@H](C)C[C@H](C)/C=C/C=C/C=C/1C` [SIROLIMUS], the “Bacterial Biotransformation” value in data set [1] is given as “Compound NOT metabolized”; in [2], “Compound NOT metabolized”; in data set [3] it was “Compound metabolized”; in data set [4], “Compound metabolized”; in data set [5], “Compound NOT metabolized”; in data set [6], “Compound NOT metabolized”. Besides, the “Bacterial Biotransformation” value was “Compound NOT metabolized” in data set [7]; “Compound metabolized” in data set [8]; “Compound NOT metabolized” in data set [9]; “Compound metabolized” in data set [10]; “Compound NOT metabolized” in data set [11]; “Compound metabolized” in [12]. Besides, the “Bacterial Biotransformation” value in [13] is recorded as “Compound metabolized”; in data set [14], “Compound NOT metabolized”; in [15] it was “Compound NOT metabolized”; in [16], “Compound NOT metabolized”; in data set [17], “Compound NOT metabolized”; in data set [18], “Compound metabolized”. In addition, the “Bacterial Biotransformation” value was “Compound metabolized” in data set [19]; “Compound NOT metabolized” in data set [20]; “Compound metabolized” in [21]; “Compound metabolized” in data set [22]; “Compound metabolized” in data set [23]; “Compound NOT metabolized” in data set [24].

Turning to `C=CC[C@@H]1/C=C(\C)C[C@H](C)C[C@H](OC)[C@H]2O[C@@](O)(C(=O)C(=O)N3CCCC[C@H]3C(=O)O[C@H](/C(C)=C/[C@@H]3CC[C@@H](O)[C@H](OC)C3)[C@H](C)[C@@H](O)CC1=O)[C@H](C)C[C@@H]2OC.O` [TACROLIMUS], the “Bacterial Biotransformation” value is recorded as “Compound NOT metabolized” in [1]; “Compound metabolized” in [2]; “Compound metabolized” in [3]; “Compound metabolized” in [4]; “Compound NOT metabolized” in [5]; “Compound NOT metabolized” in data set [6]. Also, the “Bacterial Biotransformation” value in data set [7] is “Compound NOT metabolized”; in [8] it was “Compound metabolized”; in data set [9] it was “Compound NOT metabolized”; in data set [10] it was “Compound metabolized”; in data set [11], “Compound NOT metabolized”; in data set [12] it was “Compound metabolized”. Besides, the “Bacterial Biotransformation” value was “Compound NOT metabolized” in [13]; “Compound metabolized” in [14]; “Compound NOT metabolized” in data set [15]; “Compound NOT metabolized” in [16]; “Compound NOT metabolized” in [17]; “Compound NOT metabolized” in data set [18]. Further, the “Bacterial Biotransformation” value in data set [19] is recorded as “Compound NOT metabolized”; in data set [20] it was “Compound metabolized”; in [21], “Compound metabolized”; in data set [22], “Compound metabolized”; in data set [23], “Compound metabolized”; in data set [24], “Compound NOT metabolized”.

The record behind these values is ChEMBL document CHEMBL5724806, “Unraveling interindividual differences and functional consequences of gut microbial metabolism of immunosuppressants” (2024).
